We go through eleven compounds from patent publication EP3035931B1, “COMPOSITION FOR REDUCING NERVOUS SYSTEM INJURY AND METHOD OF MAKING AND USE THEREOF” (Morehouse School of Medicine, priority 2013, dated 2015).

Several values for one entry are separate records, joined by “and”; a condition that tells them apart may be missing. Equal values may be shown once. Where a name gives a salt, the structure may show the parent alone. Read-outs that look alike come from different tables or passages of the source.

One series concerns the target T1, ASIC1a channel (Mus musculus, UniProt Q6NXK8).
T1 construct: endogenous in cells
T1 sequence (Q6NXK8 1-526): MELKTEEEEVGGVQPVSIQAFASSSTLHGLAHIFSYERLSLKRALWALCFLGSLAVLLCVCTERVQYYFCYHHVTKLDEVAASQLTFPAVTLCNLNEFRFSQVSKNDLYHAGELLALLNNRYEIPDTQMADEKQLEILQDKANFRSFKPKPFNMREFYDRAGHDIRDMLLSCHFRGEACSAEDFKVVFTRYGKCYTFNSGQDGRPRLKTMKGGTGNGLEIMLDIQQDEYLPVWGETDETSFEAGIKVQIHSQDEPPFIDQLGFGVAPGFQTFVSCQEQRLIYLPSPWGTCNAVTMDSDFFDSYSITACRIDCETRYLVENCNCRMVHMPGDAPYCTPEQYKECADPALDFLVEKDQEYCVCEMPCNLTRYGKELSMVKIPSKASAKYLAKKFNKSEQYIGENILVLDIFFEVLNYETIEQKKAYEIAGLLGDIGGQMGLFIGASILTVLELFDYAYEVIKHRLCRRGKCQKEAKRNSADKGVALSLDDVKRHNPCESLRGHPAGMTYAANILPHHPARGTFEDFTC
Briefly: Table 1, inhibition in neurons. It counts as cell-based. As for the experimental part:
ASIC currents were recorded with whole-cell patch-clamp and fast-perfusion techniques. […] For low pH solutions, various amounts of HCl were added. For solutions with pH<6.0, MES instead of HEPES was used for more reliable pH buffering. Patch electrodes contained (in mM) 140 CsF, 2.0 MgCl2, 1.0 CaC2, 10 HEPES, 11 EGTA, 4 MgATP (pH 7.3), 300 mOsm. […] A multibarrel perfusion system (SF-77B, Warner Instrument Co.) was employed for rapid exchange of solutions.

The target of another series is T2, ASIC2a (Homo sapiens, UniProt Q16515).
T2 construct: expressed in transfected cells; host or cells: CHO
T2 sequence (Q16515 1-512): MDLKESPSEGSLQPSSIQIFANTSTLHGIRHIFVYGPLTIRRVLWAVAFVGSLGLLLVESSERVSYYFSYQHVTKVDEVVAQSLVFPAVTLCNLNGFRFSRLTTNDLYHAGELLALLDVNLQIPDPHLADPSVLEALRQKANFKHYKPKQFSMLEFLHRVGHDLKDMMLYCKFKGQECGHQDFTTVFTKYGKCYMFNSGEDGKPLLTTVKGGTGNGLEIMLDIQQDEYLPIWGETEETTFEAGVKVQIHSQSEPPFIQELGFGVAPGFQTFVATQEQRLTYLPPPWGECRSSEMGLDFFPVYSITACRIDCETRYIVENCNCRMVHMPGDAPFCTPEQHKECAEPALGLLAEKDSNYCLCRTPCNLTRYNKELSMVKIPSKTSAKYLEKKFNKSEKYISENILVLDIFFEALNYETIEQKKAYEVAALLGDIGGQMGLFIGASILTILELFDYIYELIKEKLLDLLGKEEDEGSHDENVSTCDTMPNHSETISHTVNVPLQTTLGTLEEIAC
The experiment in a line: Blockade of ASIC 2a current expressed in CHO cells. Type of series: cell-based.

In a further series the test system is Knockout 2a. The experiment in a line: Table 1, inhibition in Knockout 2a. Type of series: cell-based.
Series [1] concerns the target T3, ASIC1a (Homo sapiens, UniProt P78348).
T3 sequence (P78348 1-528): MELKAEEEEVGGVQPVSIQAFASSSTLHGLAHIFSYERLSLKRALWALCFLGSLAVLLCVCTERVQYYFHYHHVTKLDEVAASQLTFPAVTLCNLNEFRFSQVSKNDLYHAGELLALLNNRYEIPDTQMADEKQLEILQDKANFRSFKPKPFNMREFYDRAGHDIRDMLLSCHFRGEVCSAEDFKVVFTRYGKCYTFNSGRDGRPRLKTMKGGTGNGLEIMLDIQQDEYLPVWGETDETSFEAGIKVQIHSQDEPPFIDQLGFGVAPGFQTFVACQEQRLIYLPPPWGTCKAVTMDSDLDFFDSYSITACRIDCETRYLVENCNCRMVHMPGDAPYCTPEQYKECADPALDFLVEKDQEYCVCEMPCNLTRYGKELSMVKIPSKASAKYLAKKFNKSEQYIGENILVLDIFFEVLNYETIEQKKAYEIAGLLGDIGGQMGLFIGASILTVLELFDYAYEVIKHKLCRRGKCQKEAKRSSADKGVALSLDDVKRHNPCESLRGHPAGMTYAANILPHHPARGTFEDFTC
The experiment in a line: Blockade of ASIC 1a current expressed in CHO cells. Type of series: cell-based. More on the design: expressed in transfected cells; host or cells: CHO. The settings on record: for block of ASIC1a current: CHO cells, FIG. 16.

For another series, the system named is Knockout 1a. Briefly: Table 1, inhibition in Knockout 1a. Type of series: cell-based.
The nature of series [2]: Mouse 60 min MCAO, memantine i.p. with or without PcTX venom i.c.v., infarct volume. Type of series: in vivo, mice.
Series [3] has as its system cultured cortical neurons. The experiment in a line: LDH release after combined 1 hr OGD/acidosis in cortical neurons. The settings on record: trolox 500 µM, L-NAME 300 µM; n=8-11. It counts as cell-based, mouse. As for the experimental part:
(§1) Background absorbance at 620 was subtracted.
Neurons were washed three times and incubated with glucose-free ECF at pH 7.4 or 6.0 in an anaerobic chamber (Model 1025, Forma Scientific) with an atmosphere of 85% N2, 10% H2, and 5% CO2 at 35° C. Oxygen-glucose deprivation (OGD) was terminated after 1 hr by replacing the glucose-free ECF with Neurobasal medium and incubating the cultures in a normal cell culture incubator.
As the magnitude of ASIC currents may be potentiated by cellular and neurochemical components of brain ischemia-cell swelling, arachidonic acid, and lactate and, more importantly, the desensitization of ASIC currents may be reduced dramatically by modeled ischemia (see FIGS. 5A and 5C), activation of ASICs in ischemic conditions is expected to produce greater neuronal injury. To test this hypothesis, neurons were subjected to 1 hr acid treatment under oxygen and glucose deprivation (OGD). MK801, CNQX, and nimodipine were added to all solutions to inhibit voltage-gated Ca^2+ channels and glutamate receptor-mediated cell injury associated with OGD. One hour incubation with pH 7.4 ECF under OGD conditions induced only 27.1% ± 3.5% of maximal LDH release at 24 hr (n=5, FIG. 9D).

The target in series [4] is T3, ASIC1a. Briefly: Inhibition of the ASIC1a channel (IC50 from Table 1, cell system not given). It counts as cell-based. The settings on record: quoted in the text from Table 1.
For series [5] the following is noted: 0.9% saline; cited from earlier work.
The subject of another series is ASIC1^-/- neurons. Type of series: cell-based, mouse. The settings on record: 1 hr treatment with 1 mM NMDA+10 µM glycine in Mg^2+-free pH 7.4 ECF; n=4. As for the experimental part: Following anesthesia with halothane, cerebral cortices were dissected from E16 Swiss mice or P1 ASIC1+/+ and ASIC1-/- mice and incubated with 0.05% trypsin-EDTA for 10 min at 37° C. Tissues were then triturated with fire-polished glass pipettes and plated on poly-L-ornithine-coated 24-well plates or 25x25 mm glass coverslips at a density of 2.5x10^5 cells per well or 10^6 cells per coverslip. Neurons were cultured with MEM supplemented with 10% horse serum (for E16 cultures) or Neurobasal medium supplemented with B27 (for PI cultures) and used for electrophysiology and toxicity studies after 12 days. Glial growth was suppressed by addition of 5-fluoro-2-deoxyuridine and uridine, yielding cultured cells with 90% neurons as determined by NeuN and GFAP staining (data not shown).
as §1
. […] . In contrast to acid incubation, 1 hr treatment of ASIC1^-/- neurons with 1 mM NMDA+10 µM glycine (in Mg^2+-free [pH 7.4] ECF) induced 84.8% ± 1.4% of maximal LDH release at 24 hr (n=4, FIG. 9C), indicating normal response to other cell injury processes.

The nature of series [6]: Mouse 60 min MCAO, intracerebroventricular injection one hour after MCAO, infarct volume. To be noted: mice, evaluated one day after ischemia induction, FIG. 18.
For the next series, the system named is cortical neurons. Briefly: Fura-2 Ca^2+ imaging of acid-induced increase of [Ca^2+]i in cortical neurons. It counts as cell-based, mouse. To be noted: preincubation with 1 µM; n=6.
The mark [7] stands for this setting: Neuron (-60 mV), read-out: Inhibition of the ASIC1a channel, Neuron (-60 mV).
[8] abbreviates: read-out: Inhibition of the ASIC1a channel, Neuron (-60 mV).

Turning to `CCN(c1nc(N)c(C(=O)NC(=N)N)nc1Cl)C(C)C` [EIPA, 5-(N-ethyl-N-isopropyl) amiloride], the IC50 came out at 32.2 ± 6.3 µM at ASIC1a channel (Neuron (-20 mV), read-out: Inhibition of the ASIC1a channel, Neuron (-20 mV)); 43.3 ± 1.43 µM on ASIC1a channel (setting [7]); 31 µM at ASIC2a (CHO 2a, read-out: Inhibition, CHO 2a); 20.1 ± 2.2 µM in the series with Knockout 2a; 111 ± 30 µM at ASIC1a [1] (CHO 1a, read-out: Inhibition of the ASIC1a channel, CHO 1a); 35.9 ± 2.1 µM in the series on Knockout 1a. The “block of ASIC2a current” value at ASIC2a (CHO cells, FIG. 17) is given as “dose-dependent”. Besides, the “block of ASIC1a current” value at ASIC1a [1] is given as “dose-dependent”. For `CN(C)c1nc(N)c(C(=O)NC(=N)N)nc1Cl` [5-(N, N-Dimenthyl)amiloride hydrochloride], the IC50 at ASIC1a channel (setting [8]) was found to be 14.8 ± 7.1 µM. On to `CC12CC3CC(C)(C1)CC(N)(C3)C2` [memantine], for which the infarct volume stood at 27.7 ± 1.6 mm^3 in series [2] (ASIC1^-/- mice, memantine i.p., n=5) and 61.6 ± 12.7 mm^3 in series [2] (ASIC^+/+ mice, 10 mg/kg memantine i.p., saline 101.4 ± 9.4, n=5). Consider `COC(=O)[C@@H](N)CCCNC(=N)N[N+](=O)[O-]` [L-NAME], for which the “LDH release induced by combined 1 hr OGD/acidosis” value in series [3] is “not inhibited”. As to `NC(=NCc1ccccc1)NC(=O)c1nc(Cl)c(N)nc1N` [benzamil], the IC50 at ASIC1a [4] is 4.9 µM and 4 to 8 µM. In [5], the reported solubility is 0.4 mg/ml and 1.7 mM. Take `CC(C)CN(C)c1nc(N)c(C(=O)N=C(N)N)nc1Cl` [5-(N-Methyl-N-isobutyl)-amiloride]: on ASIC1a channel (setting [8]), the IC50 is 24.3 µM.

`CN[C@H](CC(=O)O)C(=O)O` [NMDA]: the “maximal LDH release at 24 hr” value with ASIC1^-/- neurons was 84.8% ± 1.4%. Turning to `CC(C)COCC(CN(Cc1ccccc1)c1ccccc1)N1CCCC1` (stereo not drawn) [Bepridil, bepridil], the infarct volume entry in series [6] was “effectively reduce infarct volume”. Also, at ASIC1a channel (setting [7]), the IC50 is 82.9 ± 5.2 µM. For the compound `C/C=C(/C)C(=O)O[C@H]1C(C)=C2[C@H]([C@@H]1OC(=O)CCCCCCC)[C@@](C)(OC(C)=O)C[C@H](OC(=O)CCC)[C@@]1(O)[C@H]2OC(=O)[C@@]1(C)O` [thapsigargin], in the series with cortical neurons, the “sustained component of Ca^2+ increase” value is on record as “partially inhibited”.

Turning to `NC(=Nc1ccccc1)NC(=O)c1nc(Cl)c(N)nc1N` [phenamil], the “block of ASIC1a current” value on ASIC1a [1] is reported as “dose-dependent”. `Cc1c(C)c2c(c(C)c1O)CCC(C)(C(=O)O)O2` (stereo not drawn) [trolox]: the “LDH release induced by combined 1 hr OGD/acidosis” value in series [3] is reported as “not inhibited”.
